Converted amounts (≈) assume the structure as drawn.
Key:
[1] = system: P. falciparum NF54 strain (sensitive to standard antimalarials); experiment: semiautomated microdilution assay, [3H]-hypoxanthine incorporation, NF54 strain; type: cell-based, Plasmodium falciparum; details: NF54 strain, 72 h incubation
Procedure, shortened: (§1)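 IC50 values come from logit regression of semiautomated microdilution data obtained on intraerythrocytic parasites drawn from asynchronous cultures.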

[2] = system: P. falciparum K1 strain (Thailand resistant to chloroquine); experiment: semiautomated microdilution assay, [3H]-hypoxanthine incorporation, K1 strain; type: cell-based, Plasmodium falciparum; details: K1 strain, 72 h incubation
Procedure, shortened: as §1

[3] = system: ANKA strain of P. berghei; experiment: single dose STI in vivo screen in infected mice; parameters: species or system Plasmodium berghei; details: for Activity (%) po / Activity (%) sc / Activity (%) SSVpo: percent reduction in parasitemia day 3 post-infection, mice; for Activity (%) po / Survival (days) po: single 10 mg/kg po in 3% ethanol and 7% Tween 80; for Activity (%) sc / Survival (days) sc: single 10 mg/kg sc in 3% ethanol and 7% Tween 80; for Activity (%) SSVpo: single po dose in standard suspending vehicle (SSV); for Survival (days) po / Survival (days) sc / Survival (days) SSVpo: untreated control 5.6 ± 0.3; for Survival (days) SSVpo: single po dose in SSV
Procedure, shortened: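 Groups of 3-5 Moro SPF or NMRI mice infected with the ANKA strain of P. berghei received a single dose of trioxolane on day one post-infection. The compound was given in 3% ethanol and 7% Tween 80 or in SSV (0.5% w/v CMC, 0.5% v/v benzyl alcohol, 0.4% v/v Tween 80, 0.9% w/v sodium chloride in water). Antimalarial activity was scored as percent reduction in parasitemia on day three and as survival time versus untreated controls. Survival to day 30 counted as cure.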

SMILES | IC50 (ng/ml) NF54 [1] | IC50 (ng/ml) K1 [2] | Activity (%) po [3] | Activity (%) sc [3] | Activity (%) SSVpo [3] | Survival (days) po [3] | Survival (days) sc [3] | Survival (days) SSVpo [3]
N=C(N)N1CCC2(CC1)OOC1(O2)C2CC3CC(C2)CC1C3 (stereo not drawn) [OZ191] | > 10 ng/mL | 6.0 ng/mL (≈ 19.5 nM) | 7% | 17% | 5% | 5.7 days | 6.0 days | 5.7 days
Fc1ccc(OC2CCC3(CC2)OOC2(O3)C3CC4CC(C3)CC2C4)cc1 (stereo not drawn) [OZ193] | 8.3 ng/mL (≈ 22.2 nM) | 5.5 ng/mL (≈ 14.7 nM) | 99.75% | 99.92% | 93% | 9.3 days | 11.0 days | 8.0 days
O=C(O)CCC(=O)N[C@H]1CC[C@]2(CC1)OOC1(O2)C2CC3CC(C2)CC1C3 (stereo partly drawn) [OZ196] | >10/>10 ng/ml | >10/>10 ng/ml | 10% | 17% | 0% | 6.0 days | 5.7 days | 5.3 days
O=C(O)c1cccc([C@H]2CC[C@]3(CC2)OOC2(O3)C3CC4CC(C3)CC2C4)c1 (stereo partly drawn) [OZ198] | >10/>10 ng/ml | >10/>10 ng/ml | 4% | 6% | 6% | 5.7 days | 5.7 days | 6.0 days
CCS(=O)(=O)CCN1CCC2(CC1)OOC1(O2)C2CC3CC(C2)CC1C3 (stereo not drawn) [OZ200] | 2.9 ng/mL (≈ 7.52 nM) | 1.0 ng/mL (≈ 2.59 nM) | 81% | 92% | 78% | 7.0 days | 8.0 days | 7.3 days
Fc1ccc(NC2CCC3(CC2)OOC2(O3)C3CC4CC(C3)CC2C4)cc1 (stereo not drawn) [OZ201] | 3.1 ng/mL (≈ 8.3 nM) | 2.0 ng/mL (≈ 5.36 nM) | 100/100/100% | 100/100/100% | 100/100/100% | 13 days | 25 days | 10.3 days
CC(=O)OC(C)(C)C(=O)N[C@H]1CC[C@]2(CC1)OOC1(O2)C2CC3CC(C2)CC1C3 (stereo partly drawn) [OZ202] | 7.9 ng/mL (≈ 19.4 nM) | 6.0 ng/mL (≈ 14.7 nM) | 79% | 74% | 51% | 7.0 days | 7.3 days | 7.3 days
O=C(N1CCCC1)N1CCC2(CC1)OOC1(O2)C2CC3CC(C2)CC1C3 (stereo not drawn) [OZ203] | 6.7 ng/mL (≈ 18.5 nM) | 3.9 ng/mL (≈ 10.8 nM) | 87% | 99.72% | 99.42% | 7.3 days | 9.7 days | 8.7 days
COC(=O)c1ccc(C[C@H]2CC[C@]3(CC2)OOC2(O3)C3CC4CC(C3)CC2C4)cc1 (stereo partly drawn) [OZ204] | >10/>10 ng/ml | >10/>10 ng/ml | 0/0/0% | 0/0/0% | 0/0/0% | 6.0 days | 6.0 days | 6.3 days
O=C1CNC(=O)N1C[C@H]1CC[C@]2(CC1)OOC1(O2)C2CC3CC(C2)CC1C3 (stereo partly drawn) [OZ206] | 2.7 ng/mL (≈ 7.17 nM) | 1.0 ng/mL (≈ 2.66 nM) | 93% | 91% | 92% | 8.0 days | 9.7 days | 8.7 days
CCOC(=O)c1cccc([C@H]2CC[C@]3(CC2)OOC2(O3)C3CC4CC(C3)CC2C4)c1 (stereo partly drawn) [OZ208] | 6.5 ng/mL (≈ 15.8 nM) | 6.0 ng/mL (≈ 14.5 nM) | 0% | 10% | 29% | 6.3 days | 5.7 days | 6.7 days
O=S(=O)(C[C@H]1CC[C@]2(CC1)OOC1(O2)C2CC3CC(C2)CC1C3)c1ccccc1 (stereo partly drawn) [OZ210] | 1.6 ng/mL (≈ 3.82 nM) | 1.4 ng/mL (≈ 3.34 nM) | 99.23% | 99.94% | 77% | 9.3 days | 10.3 days | 8.0 days
c1cnn(C[C@H]2CC[C@]3(CC2)OOC2(O3)C3CC4CC(C3)CC2C4)c1 (stereo partly drawn) [OZ211] | 1.2 ng/mL (≈ 3.48 nM) | 1.0 ng/mL (≈ 2.9 nM) | 82% | 99.90% | 78% | 8.0 days | 8.7 days | 7.3 days
O=C1c2ccccc2S(=O)(=O)N1C[C@H]1CC[C@]2(CC1)OOC1(O2)C2CC3CC(C2)CC1C3 (stereo partly drawn) [OZ212] | 2.9 ng/mL (≈ 6.31 nM) | 2.7 ng/mL (≈ 5.88 nM) | 66% | 59% | 25% | 6.7 days | 8.0 days | 6.7 days
CONC(=O)C[C@H]1CC[C@]2(CC1)OOC1(O2)C2CC3CC(C2)CC1C3 (stereo partly drawn) [OZ213] | 2.8 ng/mL (≈ 7.97 nM) | 2.3 ng/mL (≈ 6.54 nM) | 83% | 85% | 74% | 8.0/8.0/8.0 days | 8.0/8.0/8.0 days | 8.0/8.0/8.0 days
O=C(O)c1ccc(C[C@H]2CC[C@]3(CC2)OOC2(O3)C3CC4CC(C3)CC2C4)cc1 (stereo partly drawn) [OZ214] | >10/>10 ng/ml | >10/>10 ng/ml | 44% | 65% | 54% | 6.3 days | 7.7 days | 7.3 days
O=C1c2ccccc2C(=O)N1CC[C@H]1CC[C@]2(CC1)OOC1(O2)C2CC3CC(C2)CC1C3 (stereo partly drawn) [OZ215] | 7.3 ng/mL (≈ 16.7 nM) | 6.4 ng/mL (≈ 14.6 nM) | 96% | 39% | 25% | 9.7 days | 7.0 days | 6.3 days
c1cc(CN2CCC3(CC2)OOC2(O3)C3CC4CC(C3)CC2C4)ccn1 (stereo not drawn) [OZ216] | 0.67 ng/mL (≈ 1.88 nM) | 0.40 ng/mL (≈ 1.12 nM) | 62% | 99.02% | 69% | 6.3 days | 11.0 days | 7.7 days
O=C(C[C@H]1CC[C@]2(CC1)OOC1(O2)C2CC3CC(C2)CC1C3)Nc1nccs1 (stereo partly drawn) [OZ217] | 2.0/2.0 ng/ml | 2.0/2.0 ng/ml | 67% | 98% | 8% | 7.0 days | 8.0 days | 6.0 days
O=C(C[C@H]1CC[C@]2(CC1)OOC1(O2)C2CC3CC(C2)CC1C3)N1CCCCC1 (stereo partly drawn) [OZ218] | 3.0 ng/mL (≈ 7.7 nM) | 2.0 ng/mL (≈ 5.13 nM) | 98% | 99.68% | 99.30% | 10.0 days | 9.0 days | 14.3 days
c1ccc(CN2CCC3(CC2)OOC2(O3)C3CC4CC(C3)CC2C4)cc1 (stereo not drawn) [OZ220] | 4.9 ng/mL (≈ 13.8 nM) | 6.9 ng/mL (≈ 19.4 nM) | 40% | 99.95% | 0% | 6.0 days | 10.0 days | 5.3 days
NC(=O)N[C@H]1CC[C@]2(CC1)OOC1(O2)C2CC3CC(C2)CC1C3 (stereo partly drawn) [OZ221] | >10/>10 ng/ml | >10/>10 ng/ml | 80% | 97% | 87% | 6.3 days | 8.0 days | 7.0 days
CC(C)(C)NC(=O)N[C@H]1CC[C@]2(CC1)OOC1(O2)C2CC3CC(C2)CC1C3 (stereo partly drawn) [OZ222] | 6.3 ng/mL (≈ 16.6 nM) | 3.9 ng/mL (≈ 10.3 nM) | 87% | 99.76% | 75% | 7.7 days | 10.0 days | 7.0 days
COC(=O)c1cncn1C[C@H]1CC[C@]2(CC1)OOC1(O2)C2CC3CC(C2)CC1C3 (stereo partly drawn) [OZ223] | > 10 ng/mL | 4.0 ng/mL (≈ 9.94 nM) | 89% | 99.57% | 79% | 7.3 days | 12.0 days | 6.3 days
